Measurements: publication PMC7287735 (Molecules, 2020)
Read-outs that look alike come from different tables or passages of the source.

Assays:
MRC-5 cells = assay: Cellular toxicity to MRC-5 cells (XTT); conditions: 6 days, duplicate data points
HCoV-229E = assay: Anti-coronavirus cytoprotection assay (XTT, reduction of viral cytopathic effect) in MRC-5 cells; conditions: for activity against HCoV-229E at the tested concentrations: MRC-5 cells, high test concentration 100 µM; for Therapeutic Index (TC50/EC50): MRC-5/HCoV-229E
[1] = Human coronavirus 229E, MRC5, 144 h, read-out: EC50 (effective concentration that reduced 50% of viral cytopathic effect), HCoV-229E in MRC-5 cells, 6 days, triplicate data points
[2] = listed as 5′-O-tetradecanoyl ester conjugate of FTC (9)

Compound | TC50 (toxic concentration that killed 50% of MRC-5 cells) (MRC-5 cells) [µM] | EC50 (HCoV-229E; [1]) [µM] | activity against HCoV-229E at the tested concentrations (HCoV-229E) | further results
Nc1ccn([C@H]2CS[C@@H](CO)O2)c(=O)n1 [3TC (6), 2′,3′-Dideoxy-3′-thiacytidine] | > 100 | > 100 | not active | 
CCSCCCCCCCCCCCC(=O)OC[C@H]1O[C@@H](n2cc(C)c(=O)[nH]c2=O)C[C@@H]1F [5′-O-(12-thioethydodecanoyl)FLT (5), 5′-O-(12-thioethydodecanoyl)FLT] | 45.4 | > 45.4 |  | TC50 (toxic concentration that killed 50% of MRC-5 cells) (MRC-5 cells; listed as 5): 45.4 to 55.3 µM
CCCCCCCCCCCCCC(=O)OC[C@@H]1O[C@H](n2ccc(N)nc2=O)CS1 [5′-O-(tetradecanoyl)3TC (7), 5′-O-(tetradecanoyl)3TC] | 47.5 | > 47.5 |  | TC50 (toxic concentration that killed 50% of MRC-5 cells) (MRC-5 cells; listed as 7): 45.4 to 55.3 µM
CCCCCCCCCCCCCC(=O)OC[C@@H]1O[C@H](n2cc(F)c(N)nc2=O)CS1 [5′-O-(tetradecanoyl)FTC (9), 5′-O-(tetradecanoyl)FTC] | 87.5 | 72.8 |  | TC50 (toxic concentration that killed 50% of MRC-5 cells) (MRC-5 cells; [2]): 87.5 ± 1.34 µM; Therapeutic Index (TC50/EC50) (HCoV-229E): 1.20; Therapeutic Index (TC50/EC50) (HCoV-229E; [2]): 1.2
C#C[C@]1(CO)O[C@@H](n2cnc3c(N)nc(F)nc32)C[C@@H]1O [EFdA (3), 4′-ethynyl-2-fluoro-2′-deoxyadenosine] | 55.3 | > 55.3 |  | TC50 (toxic concentration that killed 50% of MRC-5 cells) (MRC-5 cells; listed as 3): 45.4 to 55.3 µM
Cc1cn([C@H]2C[C@H](F)[C@@H](CO)O2)c(=O)[nH]c1=O [FLT (4), 3′-Fluoro-3′-deoxythymidine] | > 100 | > 100 | not active | 
Nc1nc(=O)n([C@H]2CS[C@@H](CO)O2)cc1F [FTC (8), 2′,3′-dideoxy-5-fluoro-3′-thiacytidine] | > 100 | > 100 | not active | 
CCC(CC)COC(=O)[C@H](C)N[P@](=O)(OC[C@H]1O[C@@](C#N)(c2ccc3c(N)ncnn23)[C@H](O)[C@@H]1O)Oc1ccccc1 [Remdesivir (1), Remdesivir] | > 2.0 | 0.067 ± 0.012 |  | TC50 (toxic concentration that killed 50% of MRC-5 cells) (MRC-5 cells; listed as Remdesivir): > 2.0 µM; TC50 (toxic concentration that killed 50% of MRC-5 cells) (MRC-5 cells; listed as remdesivir): > 2.00 µM; TC50 (toxic concentration that killed 50% of MRC-5 cells) (MRC-5 cells; listed as remdesivir (1)): > 2 ± 0 µM; EC50 (HCoV-229E; read-out: EC50 (effective concentration that reduced 50% of viral cytopathic effect), HCoV-229E in MRC-5 cells, 6 days, triplicate data points): 0.07 µM
C[C@H](Cn1cnc2c(N)ncnc21)OCP(=O)(O)O [TFV (2), Tenofovir] | > 100 | > 100 |  | 
